Test results published in patent US20240018122A1, “PYRIDAZINYL AMINO DERIVATIVES AS ALK5 INHIBITORS” (CHIESI FARMACEUTICI S.P.A., priority 2020, published 2024).
pIC50: −log10 of the molar value.

biological target: human ALK5 (Homo sapiens (Human), UniProt P36897); experiment: ADP-GLO Kinases assay, inhibitory activity on ALK5; type: biochemical; conditions: purified recombinant human ALK5 2.6 nM, TGFβ1 peptide substrate, 25° C, 150 min incubation, ADP-Glo detection; read-out: ALK5 IC50
Sequence (P36897 80-503 limits assumed): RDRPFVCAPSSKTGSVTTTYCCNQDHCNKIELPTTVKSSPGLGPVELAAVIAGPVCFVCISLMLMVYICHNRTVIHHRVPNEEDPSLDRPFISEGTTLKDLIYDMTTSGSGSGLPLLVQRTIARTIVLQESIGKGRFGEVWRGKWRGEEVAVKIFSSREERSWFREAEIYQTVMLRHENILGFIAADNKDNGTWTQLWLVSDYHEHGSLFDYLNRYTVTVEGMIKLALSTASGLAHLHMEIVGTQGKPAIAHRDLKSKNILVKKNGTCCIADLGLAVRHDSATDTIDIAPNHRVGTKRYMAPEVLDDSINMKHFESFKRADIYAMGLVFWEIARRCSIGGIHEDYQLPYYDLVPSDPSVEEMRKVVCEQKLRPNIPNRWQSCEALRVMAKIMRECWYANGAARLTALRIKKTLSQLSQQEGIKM

| SMILES | pIC50 |
| --- | --- |
| COC(=O)[C@H]1CC[C@H](c2nnc(-c3cc(Cl)ccc3F)cc2Nc2ccnc(NC(=O)CCN3CCN(C)CC3)c2)CC1 [Example 189, methyl trans-4-(6-(5-chloro-2-fluorophenyl)-4-((2-(3-(4-methylpiperazin-1-yl)propanamido)pyridin-4-yl)amino)pyridazin-3-yl)cyclohexane-1-carboxylate] | > 9.00 |
| COC(=O)c1cc2c(Nc3cnnc(-c4cc(Cl)ccc4F)c3)ccnc2cc1OCCN1CCN(C)CC1 [Example 171, Methyl 4-{[6-(5-Chloro-2-Fluorophenyl)Pyridazin-4-Yl]Amino}-7-[2-(4-Methylpiperazin-1-Yl)Ethoxy]Quinoline-6-Carboxylate] | > 9.00 |
| Cc1nnc(-c2cc(Cl)ccc2F)cc1Nc1ccnc(NC(=O)CN2CCN(CC(F)(F)F)CC2)c1 [Example 131, N-(4-{[6-(5-Chloro-2-Fluorophenyl)-3-Methylpyridazin-4-Yl]Amino}Pyridin-2-Yl)-2-[14-(2,2,2-Trifluoroethyl)Piperazin-1-Yl]Acetamide] | > 9.00 |
| CN1CCN(CCC(=O)Nc2ccc3c(Nc4cnnc(-c5cc(Cl)ccc5F)c4)ccnc3c2)CC1 [Example 32, N-(4-{[6-(5-Chloro-2-Fluorophenyl)Pyridazin-4-Yl]Amino}Quinolin-7-Yl)-3-(4-Methylpiperazin-1-Yl)Propanamide] | > 9.00 |
| CN1CC2(CCN(CC(=O)Nc3cc(Nc4cc(-c5cc(Cl)ccc5F)nnc4CO)ccn3)CC2)C1 [Example 179, N-(4-{[6-(5-Chloro-2-Fluorophenyl)-3-(Hydroxymethyl)Pyridazin-4-Yl]Amino}Pyridin-2-Yl)-2-{2-Methyl-2,7-Diazaspiro[3.5]Nonan-7-Yl}Acetamide] | > 9.00 |
| COC(=O)C1CN(CCC(=O)Nc2cc(Nc3cc(-c4cc(Cl)ccc4F)nnc3C)ccn2)CCN1 (centres unmarked) [Example 91, Methyl 4-{2-[(4-{[6-(5-Chloro-2-Fluorophenyl)-3-Methylpyridazin-4-Yl]Amino}Pyridin-2-Yl)Carbamoyl]Ethyl}Piperazine-2-Carboxylate] | > 9.00 |
| Cc1nnc(-c2cc(Cl)ccc2F)cc1Nc1ccnc(NC(=O)CCN2CCS(=O)(=O)CC2)c1 [Example 132, N-(4-{[6-(5-Chloro-2-Fluorophenyl)-3-Methylpyridazin-4-Yl]Amino}Pyridin-2-Yl)-3-(1,1-Dioxo-11,6-Thiomorpholin-4-Yl)Propanamide] | > 9.00 |
| Cc1nnc(-c2cc(Cl)ccc2F)cc1Nc1ccnc2cc(OC(=O)N3CC(N4CCCC4)C3)ccc12 [Example 152, 4-{[6-(5-Chloro-2-Fluorophenyl)-3-Methylpyridazin-4-Yl]Amino}Quinolin-7-Yl 3-(Pyrrolidin-1-Yl)Azetidine-1-Carboxylate] | > 9.00 |
| O=C(NCCN1CCOCC1)c1ccc2c(Nc3cnnc(-c4cc(Cl)ccc4F)c3)ccnc2c1 [Example 4, 4-{[6-(5-Chloro-2-Fluorophenyl)Pyridazin-4-Yl]Amino}-N-[2-(Morpholin-4-Yl)Ethyl]Quinoline-7-Carboxamide] | > 9.00 |
| COC(=O)CCCc1nnc(-c2cc(Cl)ccc2F)cc1Nc1ccnc(NC(=O)CCN2CCN(C)CC2)c1 [Example 191, Methyl 4-(6-(5-Chloro-2-Fluorophenyl)-4-((2-(3-(4-Methylpiperazin-1-Yl)Propanamido)Pyridin-4-Yl)Amino)Pyridazin-3-Yl)] | > 9.00 |
| CN1CCN(CCNC(=O)c2ccc3c(Nc4cnnc(-c5cc(Cl)ccc5F)c4)ccnc3c2)CC1 [Example 13, 4-{[6-(5-Chloro-2-Fluorophenyl)Pyridazin-4-Yl]Amino}-N-[3-(4-Methylpiperazin-1-Yl)Ethyl]Quinoline-7-Carboxamide] | > 9.00 |
| CN1CCC(CCOc2ccc3c(Nc4cnnc(-c5cc(Cl)ccc5F)c4)ccnc3c2)CC1 [Example 17, N-[6-(5-Chloro-2-Fluorophenyl)Pyridazin-4-Yl]-7-[2-(1-Methylpiperidin-4-Yl)Ethoxy]Quinolin-4-Amine] | > 9.00 |
| Cc1nnc(-c2cc(Cl)ccc2F)cc1Nc1ccnc(NC(=O)C[N+]2([O-])CCOCC2)c1 [Example 123, 4-{[(4-{[6-(5-Chloro-2-Fluorophenyl)-3-Methylpyridazin-4-Yl]Amino}Pyridin-2-Yl)Carbamoyl]Methyl}Morpholin-4-Ium-4-Olate] | > 9.00 |
| CN1CC[C@@H](OC(=O)c2ccc3c(Nc4cnnc(-c5cc(Cl)ccc5F)c4)ccnc3c2)C1 [Example 54, (3R)-1-Methylpyrrolidin-3-Yl 4-{[6-(5-Chloro-2-Fluorophenyl)Pyridazin-4-Yl]Amino}Quinoline-7-Carboxylate] | 8.30 to 9.00 |
| COC(=O)C1CN(C)CCN1CCC(=O)Nc1cc(Nc2cc(-c3cc(Cl)ccc3F)nnc2C)ccn1 (centres unmarked) [Example 99, Methyl 1-{2-[(4-{[6-(5-Chloro-2-Fluorophenyl)-3-Methylpyridazin-4-Yl]Amino}Pyridin-2-Yl)Carbamoyl]Ethyl}-4-Methylpiperazine-2-Carboxylate] | > 9.00 |
| CS(=O)(=O)N1CCCN(CCC(=O)Nc2cc(Nc3cnnc(-c4cc(Cl)ccc4F)c3)ccn2)C1 [Example 44, N-(4-{[6-(5-Chloro-2-Fluorophenyl)Pyridazin-4-Yl]Amino}Pyridin-2-Yl)-3-(3-Methanesulfonyl-1,3-Diazinan-1-Yl)Propanamide] | > 9.00 |

Further lines, results first:

| pIC50 | SMILES |
| --- | --- |
| > 9.00 | Cc1nnc(-c2cc(Cl)ccc2F)cc1Nc1ccnc(NC(=O)NCCN2CCN(C)CC2)c1 [Example 141, 1-(4-{[6-(5-Chloro-2-Fluorophenyl)-3-Methylpyridazin-4-Yl]Amino}Pyridin-2-Yl)-3-[2-(4-Methylpiperazin-1-Yl)Ethyl]Urea] |
| > 9.00 | Cc1nnc(-c2cc(Cl)ccc2F)cc1Nc1ccnc(NC(=O)CCN2CC3(CN(C)C3)C2)c1 [Example 138, N-(4-{[6-(5-Chloro-2-Fluorophenyl)-3-Methylpyridazin-4-Yl]Amino}Pyridin-2-Yl)-3-{6-Methyl-2,6-Diazaspiro[3.3]Heptan-2-Yl}Propanamide] |
| > 9.00 | Cc1nnc(-c2cc(Cl)ccc2F)cc1Nc1ccnc(NC(=O)CN2CCCN(C)CC2)c1 [Example 166, N-(4-{[6-(5-Chloro-2-Fluorophenyl)-3-Methylpyridazin-4-Yl]Amino}Pyridin-2-Yl)-2-(4-Methyl-1,4-Diazepan-1-Yl)Acetamide] |
| > 9.00 | Cc1nnc(-c2cc(Cl)ccc2F)cc1Nc1ccnc(NC(=O)CCCN2CCN(C)CC2)c1 [Example 65, N-(4-{[6-(5-Chloro-2-Fluorophenyl)-3-Methylpyridazin-4-Yl]Amino}Pyridin-2-Yl)-4-(4-Methylpiperazin-1-Yl)Butanamide] |
| > 9.00 | COC(=O)CN1CCN(CC(=O)Nc2cc(Nc3cc(-c4cc(Cl)ccc4F)nnc3C)ccn2)CC1 [Example 96, methyl 2-(4-{[(4-{[6-(5-chloro-2-fluorophenyl)-3-methylpyridazin-4-yl]amino}pyridin-2-yl)carbamoyl]methyl}piperazin-1-yl)acetate] |
| > 9.00 | Cc1nnc(-c2cc(Cl)ccc2F)cc1Nc1ccnc(NC(=O)CN2CCN(CCN)CC2)c1 [Example 108, 2-[4-(2-Aminoethyl)Piperazin-1-Yl]-N-(4-{[6-(5-Chloro-2-Fluorophenyl)-3-Methylpyridazin-4-Yl]Amino}Pyridin-2-Yl)Acetamide] |
| > 9.00 | Cc1nnc(-c2cc(Cl)ccc2F)cc1Nc1ccnc2[nH]c(C(=O)NCCN3CCN(C)CC3)cc12 [Example 49, 4-{[6-(5-Chloro-2-Fluorophenyl)-3-Methylpyridazin-4-Yl]Amino}-N-[2-(4-Methylpiperazin-1-Yl)Ethyl]-M-Pyrrolo[2,3-b]Pyridine-2-Carboxamide] |
